The results in this text go back to US20250296920A1, “FORMULATIONS COMPRISING N-SUBSTITUTED-DIOXOCYCLOBUTENYLAMINO-3-HYDROXY-PICOLINAMIDE COMPOUNDS AND USES THEREOF” (Pfizer Inc., priority 2024, published 2025).

For one assay, the target named is T1, CCR6 (Homo sapiens, UniProt P51684).
T1 construct: Human CD4+CCR6+CXCR3-T cells were isolated from leukopak from healthy donors; endogenous in cells
T1 sequence (P51684 1-374): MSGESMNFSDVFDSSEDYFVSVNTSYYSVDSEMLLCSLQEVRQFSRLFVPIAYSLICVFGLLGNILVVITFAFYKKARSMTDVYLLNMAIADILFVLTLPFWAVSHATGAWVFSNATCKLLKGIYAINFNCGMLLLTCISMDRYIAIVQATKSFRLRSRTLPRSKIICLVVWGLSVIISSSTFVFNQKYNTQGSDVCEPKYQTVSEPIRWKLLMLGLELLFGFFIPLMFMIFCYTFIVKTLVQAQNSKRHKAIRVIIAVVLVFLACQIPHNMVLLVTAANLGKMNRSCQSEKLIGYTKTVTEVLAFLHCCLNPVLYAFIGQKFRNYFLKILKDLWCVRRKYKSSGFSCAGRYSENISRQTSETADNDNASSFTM
Nature of the assay: CCR6+ T cell chemotaxis assay. Type of assay: cell-based. The source says:
Human CD4+CCR6+CXCR3-T cells were isolated from leukopak from healthy donors using EasySep™ Human Th17 Cell Enrichment Kit. […] Day 4 post activation, Dynabeads were removed from the culture. The activated T cells were maintained at 1-2×10^6 cells/mL for 15 days by feeding fresh growth media when needed.
For IC50 determination, the top and bottom of the chemotaxis chamber contained the same concentration of compound. DMSO was kept constant at 0.1% (v/v) in all wells. The final concentration of CCL20 (Peprotech 300-29A) in the bottom chamber is 0.5 nM. The fully assembled chemotaxis plate was placed in a cell culture incubator at 37° C., 5% CO2 for 1 h. After incubation, the top filter was removed, followed by a quick freeze of the bottom chamber at −80° C. for 1 h. The migrated cells in the bottom chamber were stained with CyQUANT dye (Life Technologies, C7026) for cell number determination.
IC50 values for compounds of the present invention (Table 1a) were determined by the non-linear regression analysis of dose response curves.

The next assay concerns the target T2, CXCR2 (Homo sapiens, UniProt P25025).
T2 construct: Human neutrophils were purified from freshly drawn human whole blood; endogenous in cells; host or cells: primary human neutrophils from freshly drawn whole blood
T2 sequence (P25025 1-360): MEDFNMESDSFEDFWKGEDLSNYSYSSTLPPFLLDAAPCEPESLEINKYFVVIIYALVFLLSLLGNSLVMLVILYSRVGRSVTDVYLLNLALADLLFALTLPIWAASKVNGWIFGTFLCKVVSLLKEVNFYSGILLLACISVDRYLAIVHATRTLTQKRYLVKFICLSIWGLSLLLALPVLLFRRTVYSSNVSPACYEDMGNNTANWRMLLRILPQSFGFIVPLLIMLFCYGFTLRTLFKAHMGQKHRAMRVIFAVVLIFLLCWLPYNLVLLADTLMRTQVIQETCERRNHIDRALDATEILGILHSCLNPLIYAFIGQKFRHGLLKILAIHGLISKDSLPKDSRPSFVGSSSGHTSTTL
In words: Human neutrophil chemotaxis assay. Format: cell-based. The note with it: R = H; read-out: CXCR2 Neutrophil, GRO[…] Chemotaxis IC50. The method, then: After 30 min, the labeled neutrophils were washed twice in chemotaxis buffer, resuspended as before and used immediately. For the assay, test compounds were tested in a dose-response format to determine IC50. Labeled neutrophils (50 μL) were pre-incubated with diluted test compound (50 μL) for 30 min in a 96-well plate (Greiner). Next, 100 μL of diluted compound was mixed with 100 μL of GROα (Peprotech #300-11, 2 nM) in the bottom portion of the chemotaxis chamber.
The top portion (insert) of the chemotaxis system containing the FluoroBlok porous membrane was then assembled together. 50 μL of the pre-incubated neutrophils were added to the FluoroBlok insert (top portion) and chemotaxis measured by the neutrophils ability to migrate through the membrane towards the specific CXCR2 ligand, GROα.

SMILES strings stand for the structures.

Regarding `Cc1cn(C)nc1[C@H](Nc1c(Nc2ccnc(C(=O)N(C)C)c2O)c(=O)c1=O)C1(C)CC1` [Example 20, (R)-4-((2-(((1,4-Dimethyl-1H-pyrazol-3-yl)(1-methylcyclopropyl)methyl)amino)-3,4-dioxocyclobut-1-en-1-yl)amino)-3-hydroxy-N,N-dimethylpicolinamide], on CCR6 (T cell chemotaxis compared to neutrophil chemotaxis), the “T Cell Chemotaxis Selectivity” value is “NS** (Not selective for T cell chemotaxis compared to neutrophil chemotaxis)”.
Turning to `CN(C)C(=O)c1nccc(Nc2c(N[C@@H](c3ccn(C)n3)C3(C)CCCC3)c(=O)c2=O)c1O` [drawing 157 (R = H)], the IC50 – broadly, the concentration needed to halve the response being measured – on CXCR2 was found to be 42.1 nM; on CCR6 (R = H, read-out: CCR6 T cell, CCL20 Chemotaxis IC50), 19.2 nM.
For `Cc1nc([C@H](Nc2c(Nc3ccnc(C(=O)N(C)C)c3O)c(=O)c2=O)C2(C)CCCC2)co1` [drawing 159 (R = H)], the “T Cell Chemotaxis Selectivity” value on CCR6 (R = H) was “NS* (Not selective for T cell chemotaxis compared to neutrophil chemotaxis)”.
